Read-outs that look alike come from different tables or passages of the source. Peptide text beside a SMILES is read from it. * marks the point of attachment. Boc = CC(C)(C)OC(=O)*
System: Raf-1^gof intestinal tumors
Conditions: for Log2 (fold) (luciferase activity, log2 of the fold difference relative to DMSO controls) / Fold (luciferase activity, fold difference relative to DMSO controls): screen of 480 ICCB compounds in vials, compounds fed to flies with one-day old Raf-1^gof tumors, esg-Gal4 luciferase
[1] = assessed three days later, averaged from multiple wells
[2] = ICCB compounds fed in vials to flies with one-day old Raf-1^gof tumors, assessed three days later
[3] = ICCB compounds fed in vials to flies with one-day old Raf-1^gof tumors, assessed three days later, averaged from multiple wells
Also: test concentration or dose not given here.

SMILES | Log2 (fold) (luciferase activity, log2 of the fold difference relative to DMSO controls) (assessed three days later) | Fold (luciferase activity, fold difference relative to DMSO controls) [1] | Log2 (fold) of luciferase activity relative to DMSO controls [2] | Fold (luciferase activity relative to DMSO controls) [3] | further results
Cc1ccc(S(=O)(=O)/C=C/C#N)cc1 [BAY 11-7082] | −0.470 | 0.722 | – | – | –
COC(=O)C1=C(C)NC(C)=C([N+](=O)[O-])C1c1ccccc1C(F)(F)F (stereo not drawn) [BAY K-8644] | – | – | −0.027 | 0.982 fold | –
NC(=NCc1ccccc1)NC(=O)c1nc(Cl)c(N)nc1N [BENZAMIL] | – | – | 0.006 | 1.004 fold | –
CC(C)COCC(CN(Cc1ccccc1)c1ccccc1)N1CCCC1 (stereo not drawn) [BEPRIDIL] | – | – | −0.054 | 0.963 fold | –
COc1ccc2c(c1)c(CC(=O)N1CCOCC1)c(C)n2C(=O)c1ccc(Cl)cc1 [BML-190] | – | – | −0.202 | 0.869 fold | –
CC(C)C[C@H](NC(=O)[C@@H](O)[C@H](N)Cc1ccccc1)C(=O)O [Bestatin] | −0.688 | 0.621 | – | – | –
C=C(C)[C@@H]1CC[C@]2(C(=O)O)CC[C@]3(C)[C@H](CC[C@@H]4[C@@]5(C)CC[C@H](O)C(C)(C)[C@@H]5CC[C@]43C)[C@@H]12 [Betulinic acid] | −0.708 | 0.612 | – | – | –
Cc1ccc2c(c1)C(=O)C1(O)CCN(c3ccccc3)C1=N2 (stereo not drawn) [Blebbistatin] | – | – | 0.196 | 1.146 fold | –
CC(C)[C@H](NC(=O)CNC(=O)OC(C)(C)C)C(=O)N[C@H](C=O)C(C)C [Boc-GVV-CHO] (Boc-Gly-Val-Val-aldehyde) | −0.696 | 0.617 | – | – | –
Nc1ncnc2c1nc(Br)n2C1O[C@H]2COP(=O)(O)O[C@@H]2[C@@H]1O (stereo partly drawn) [Bromo-cAMP [8-Bromo-cAMP]] | – | – | −0.045 | 0.969 fold | –
Nc1nc2c(nc(Br)n2[C@@H]2O[C@@H]3COP(=O)(O)O[C@H]3[C@H]2O)c(=O)[nH]1 [Bromo-cGMP [8-Bromo-cGMP]] | – | – | 0.021 | 1.015 fold | –
CCCCCCCCCCCCC/C=C/[C@@H](O)[C@H](CO)NC(C)=O [C2 CERAMIDE] | −0.493 | 0.711 | – | – | –
CCCCCCCCCCCCCCC[C@@H](O)[C@H](CO)NC(C)=O [C2 DIHYDROCERAMIDE] | −0.466 | 0.724 | – | – | –
CCCCCCCCCCCCC/C=C/[C@@H](O)[C@H](CO)NC(=O)CCCCCCC [C8 CERAMIDE] | −0.427 | 0.744 | – | – | –
CCCCCCCCCCCCC/C=C/[C@@H](O)[C@H](CO)NCCCCCCCC [C8 CERAMINE] | −0.302 | 0.811 | – | – | –
CCCCCCCCCCCCCCC[C@@H](O)[C@H](CO)NC(=O)CCCCCCC [C8 DIHYDROCERAMIDE] | −0.423 | 0.746 | – | – | –
CCCCCCCCCCCCC/C=C/[C@@H](O)[C@H](CO)NC(=O)CCCCCCCCCCCCCCC [C16 CERAMIDE] | −0.496 | 0.709 | – | – | –
CCCCCCCCCCCCCCCCOC[C@H](COP(=O)([O-])OCC[N+](C)(C)C)OC(=O)NC [C-PAF] | – | – | 0.119 | 1.086 fold | –
CCCNC(=O)[C@H]1O[C@@H]1C(=O)N[C@H](C(=O)N1CCC[C@H]1C(=O)OC)[C@@H](C)CC [CA-074-Me] | – | – | −0.114 | 0.924 fold | –
O=C(/C=C/c1ccc(O)c(O)c1)OCCc1ccccc1 [CAPE] | −0.324 | 0.799 | – | – | –
CCCCC[C@H](O)/C=C/[C@@H]1[C@H]2C/C(=C/CCCC(=O)O)C[C@H]2C[C@H]1O [CARBACYCLIN] | −0.283 | 0.822 | – | – | –
N#C/C(=C\c1ccc(O)c(O)c1)C(=O)OC/C=C/c1ccccc1 [CDC] | −0.360 | 0.779 | – | – | –
O=C1CSC(c2ccccc2Cl)c2cc(Cl)ccc2N1 (stereo not drawn) [CGP-37157] | – | – | −0.195 | 0.873 fold | –
CC1(COc2ccc(CC3SC(=O)NC3=O)cc2)CCCCC1 (stereo not drawn) [CIGLITAZONE] | – | – | 0.038 | 1.027 fold | –

SMILES | Log2 (fold) (luciferase activity, log2 of the fold difference relative to DMSO controls) (assessed three days later) | Fold (luciferase activity, fold difference relative to DMSO controls) [1] | Log2 (fold) of luciferase activity relative to DMSO controls [2] | Fold (luciferase activity relative to DMSO controls) [3] | further results
CC(C)NCC(O)c1ccc(N)c(C#N)c1 (stereo not drawn) [CIMATEROL] | −0.598 | 0.661 | – | – | –
c1ccc(C2CC2)c(OCC2=NCCN2)c1 [CIRAZOLINE] | – | – | 0.121 | 1.088 fold | –
Clc1ccc(-c2nc3sccn3c2/C=N/OCc2ccc(Cl)c(Cl)c2)cc1 [CITCO] | – | – | −0.162 | 0.894 fold | –
CCOC(=O)C(C)(C)Oc1ccc(Cl)cc1 [CLOFIBRATE] | – | – | 0.221 | 1.165 fold | –
O=C([O-])CCC/C=C\CC1C(O)CC(O)C1/C=C/C(O)COc1cccc(Cl)c1.[Na+] (stereo not drawn) [CLOPROSTENOL Na] | – | – | 0.101 | 1.073 fold | –
CC(=O)C1=C(O)[C@@H]2[C@H]3c4c[nH]c5cccc(c45)C[C@H]3C(C)(C)N2C1=O [CYCLOPIAZONIC ACID] | – | – | 0.072 | 1.051 fold | –
C/C=C/C/C=C/CCC(=O)[C@H]1O[C@H]1C(N)=O [Cerulenin] | −0.474 | 0.720 | – | – | –
COc1cc(/C=C/C(=O)CC(=O)/C=C/c2ccc(O)c(OC)c2)ccc1O [Curcumin] | – | – | 0.112 | 1.081 fold | –
CCCCC[C@H](O)C/C=C1/C(=O)C=C[C@@H]1C/C=C\CCCC(=O)O [D12-PROSTAGLANDIN J2] | – | – | – | – | Fold (luciferase activity relative to DMSO controls) (in vivo): 0.988 fold; Log2 (fold) of luciferase activity relative to DMSO controls (in vivo): −0.017
O=C1CN(/N=C/c2ccc(-c3ccc([N+](=O)[O-])cc3)o2)C(O)=N1 [DANTROLENE] | – | – | −0.098 | 0.934 fold | –
CC1=NS(=O)(=O)c2cc(Cl)ccc2N1 [DIAZOXIDE] | −0.257 | 0.837 | – | – | –
NC(=NC(=O)c1nc(Cl)c(N)nc1N)NCc1ccc(Cl)c(Cl)c1 [DICHLOROBENZAMIL] | – | – | −0.116 | 0.923 fold | –
CCCCC/C=C\C/C=C\C/C=C\CCCCCCC(=O)O [DIHOMO-GAMMA-LINOLENIC ACID] | – | – | 0.323 | 1.251 fold | –
CCCCCCCCCCCCCCC[C@@H](O)[C@@H](N)CO [DIHYDROSPHINGOSINE] | – | – | 0.000 | 1.000 fold | –
c1ccc2c(Cc3c[nH]c4ccccc34)c[nH]c2c1 [DIINDOLYLMETHANE] | – | – | 0.465 | 1.381 fold | –
COc1ccc([C@@H]2Sc3ccccc3N(CCN(C)C)C(=O)[C@@H]2OC(C)=O)cc1 [DILTIAZEM] | – | – | −0.205 | 0.868 fold | –
CC/C=C\C/C=C\C/C=C\C/C=C\C/C=C\C/C=C\CCC(=O)O [DOCOSAHEXAENOIC ACID (22:6 n-3)] | −0.248 | 0.842 | – | – | –
CC/C=C\C/C=C\C/C=C\C/C=C\C/C=C\CCCCCC(=O)O [DOCOSAPENTAENOIC ACID] | – | – | −0.161 | 0.895 fold | –
CC/C=C\C/C=C\C/C=C\CCCCCCCCCCCC(=O)O [DOCOSATRIENOIC ACID (22:3 n-3)] | – | – | −0.055 | 0.963 fold | –
OC[C@H]1O[C@@H](n2cnc3cc(Cl)c(Cl)cc32)[C@H](O)[C@@H]1O [DRB] | −0.246 | 0.843 | – | – | –
CCCCCCCCCCC1=C(C)C(=O)C(OC)=C(OC)C1=O [Decylubiquinone] | −0.442 | 0.736 | – | – | –
C#CCN(C)C(C)Cc1ccccc1 (stereo not drawn) [Deprenyl] | −0.642 | 0.641 | – | – | –
Cc1cccc(CCN2CCC(C(=O)c3ccc(NS(C)(=O)=O)cc3)CC2)n1 [E-4031] | – | – | −0.195 | 0.874 fold | –
CCCCCC[C@@H]([C@@H](C)O)n1cnc2c(N)ncnc21.Cl [EHNA HCl] | −0.312 | 0.805 | – | – | –

Source: patent publication US20130096067A1, “DROSOPHILA TUMOR STEM CELL MODEL AND USES THEREOF” (priority 2011, published 2013)
